Assay results as given in patent publication US12583818B2 (DAEGU-GYEONGBUK MEDICAL INNOVATION FOUNDATION, priority 2020, dated 2026).
Like-named read-outs stand apart in the source and are kept apart here.

Experiments:
[1] = system: MCF7 cells (breast cancer cells); experiment: Cell viability of MCF7 cells (Cell-titer Glo); type: cell-based; settings: Homo sapiens
Experimental: (§1) In order to confirm the inhibitory effect of the compound represented by formula 1 according to the present invention on the growth of MCF7, MCF7-SP, A2780 or A2780-SP cells, the following experiment was performed, and the results are shown in Tables 4 and 5 below.
MCF7 cells (breast cancer cells) were plated in a 96-well plate at the density of 3000 viable cells per well, and cultured in DMEM/High glucose medium supplemented with 10% FBS and 1% penicillin/streptomycin.
(§2) On the next day of culture, the cells were treated with the compound of Example 71, 76, 80, 84, 92, 99, 100 or 119, followed by culture for 3 days. Cell viability was evaluated by Cell-titer Glo (Promega, WC, USA), and luciferase activity was detected using a Tecan plate reader (Biocompare, USA).

[2] = system: A2780 cells (ovarian cancer cells); experiment: Cell viability of A2780 cells (Cell-titer Glo); type: cell-based; settings: Homo sapiens
How it was run: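 A2780 ovarian cancer cells seeded at 3000 viable cells/well in RPMI-1640 with 10% FBS, dosed the next day and grown 3 days. Viability measured by Cell-titer Glo luminescence.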

[3] = system: A2780-SP cells (ovarian cancer stem cells); experiment: Sphere cell viability of A2780-SP cells (Cell-titer Glo); type: cell-based
How it was run: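 A2780-SP ovarian cancer stem cells grown as spheres in ultra-low-attachment wells (1,500 cells/well) in neurobasal stem-cell medium with bFGF, EGF, B27. Compound added the day after plating, re-dosed on day 4, 8-day culture total; viability by CellTiter-Glo luminescence.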

[4] = system: MDA-MB 231 triple negative breast cancer cell line; experiment: MDA-MB 231 protein expression inhibition (Western blotting, cycline D1 vs Vinculin); type: cell-based; settings: Homo sapiens, compound 10 μM, 72 hours, cycline D1 Western blot, read-out: MBA-MB-231 (amount of the protein compared to the DMSO-treated control group)
Experimental: In order to confirm the ability of the compound represented by formula 1 according to the present invention to inhibit the protein expression of MDA-MB 231 triple negative breast cancer cell line, the following experiment was performed, and the results are shown in Table 3 below.
MDA-MB-231 cells were cultured in a 5% CO2 incubator at 37° C. using RPMI medium supplemented with 10% FBS and 1% penicillin/streptomycin.
The cells were washed with PBS once a day, and then replaced with a new medium. The cells grown at the density of at least 90% 1 day before the experiment were detached using trypsin/EDTA, and then plated at the density of 100,000 per well in a 6-well plate.
On the next day of culture, the compound prepared in each example was treated at a concentration of 10 μM, and DMSO was treated at a concentration of 0.1% of the total as the control, followed by incubation for 72 hours. After 72 hours, the cells were washed twice with PBS, collected by scraping, and centrifuged at 13,000 rpm for 3 minutes to remove all the supernatant and only cells were taken.
RIPA buffer (containing 1× protease inhibitor and phosphatase inhibitor) was added to the prepared cells (80 μl/well), and the plate was shaken once every 5 minutes to disrupt the cells for a total of 15 minutes. The disrupted cells were centrifuged at 13,000 rpm for 15 minutes to collect only the supernatant protein. The obtained protein was quantified using a BCA protein quantification kit (Pierece, MA, USA), and a total of 10 μg of the protein was used for Western blotting.
The protein sample was isolated by 10% SDS-PAGE, and transferred to a PVDF membrane. Anti-human cycline D1 antibody (Cell signal) and anti-Vinculin antibody were bound to the protein sample, and the expression of the protein was measured by using an ECL reagent and LAS4000 equipment. The measurement results were quantified and generalized using ImageJ. The results are shown in Table 3 below by dividing the grades A to D according to the amount of the protein compared to the DMSO-treated control group.

[5] = system: MCF7-SP cells (breast cancer stem cells); experiment: Sphere cell viability of MCF7-SP cells (Cell-titer Glo); type: cell-based
Experimental: as §1
On the other hand, MCF7-SP cells (breast cancer stem cells) were plated in an Ultra-Low Attachment round bottom 96-well plate (corning) at the density of 1,500 viable cells per well, and cultured in cancer stem cell medium. The cancer stem cell medium is composed of the neurobasal medium supplemented with 20 ng/ml of bFGF, 10 ng/ml of EGF, 2.5 […], HEPES, Glutamax and B27.
as §2, with “for 8” for “for 3”, “days. The medium containing the compound was added thereto once again on the 4th day. Sphere cell” for “days. Cell”

[6] = molecular target: T1, Pin1 (Homo sapiens, UniProt Q13526); experiment: Evaluation of Pin1 enzyme inhibitory activity (Sensolyte Green Pin1 assay kit); type: biochemical
T1 construct: purchased Anaspec
T1 sequence (Q13526 whole entry): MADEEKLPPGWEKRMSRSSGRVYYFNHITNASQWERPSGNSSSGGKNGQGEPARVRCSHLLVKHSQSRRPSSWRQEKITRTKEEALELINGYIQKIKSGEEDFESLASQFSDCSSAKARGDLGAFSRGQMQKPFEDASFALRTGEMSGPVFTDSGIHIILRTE
How it was run: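 Compounds were tested at four working concentrations (100, 10, 1, 0.1 μM), mixed with Pin1 (50 μg/ml stock dilution), developer and substrate (1 μM as prepared). Fluorescence at 490/520 nm was recorded after 2 h in the dark at room temperature. Results were grouped into grades A–D by inhibiting concentration.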

[7] = 72 h, cell viability, culture for 3 days, read-out: MCF7
[8] = MCF7, text summary of Table 4, read-out: MCF7 cell concentration
[9] = 72 h, cell viability, culture for 3 days, read-out: A2780
[10] = A2780, Table 5, read-out: A2780 cell concentration
[11] = 192 h, sphere cell viability, culture for 8 days, read-out: A2780-SP
[12] = Table 5, read-out: the concentration (second list of b710, cell line not named; matches A2780-SP column)
[13] = 192 h, sphere cell viability, culture for 8 days, read-out: MCF7-SP
[14] = text summary of Table 4, read-out: MCF7-SP cell concentration
[15] = Table 2, read-out: concentration at which Pin1 inhibitory activity was exhibited
[16] = concentration at which the Pin1 enzyme activity is inhibited, 2 hours at room temperature, fluorescence 490 nm/520 nm, read-out: Pin 1 inhibition

Compound | IC50 [1, 7] [µM] | IC50 [1, 8] [µM] | IC50 [2, 9] [µM] | IC50 [2, 10] [µM] | IC50 [3, 11] [µM] | IC50 [3, 12] [µM] | activity at 10 µM [4] [%] | IC50 [5, 13] [µM] | IC50 [5, 14] [µM] | IC50 [6, 15] [µM] | IC50 [6, 16] [µM]
O=S(=O)(NCCCc1c[nH]c2ccc(Cl)cc12)c1ccc(OCCCN2CCNCC2)cc1 [Example 70, N-(3-(5-chloro-1H-indol-3-yl)propyl)-4-(3-(piperazin-1-yl)propoxy)benzenesulfonamide] | 1 to 10 | < 10 | 1 to 10 | < 10 | < 1 | < 1 | 0 to 35 | 1 to 10 | < 10 | < 1 | < 1
O=S(=O)(NCCCc1c[nH]c2ccc(Cl)cc12)c1ccc(OCCCN2CCC(O)CC2)cc1 [Example 75, N-(3-(5-chloro-1H-indol-3-yl)propyl)-4-(3-(4-hydroxypiperidin-1-yl)propoxy)benzenesulfonamide] | 1 to 10 | < 10 | 1 to 10 | < 10 | 1 to 10 | – | 0 to 35 | > 10 | – | < 1 | < 1
O=S(=O)(NCCCc1c[nH]c2ccc(Cl)cc12)c1ccc(OCCCN2CCNCC2)nc1 [Example 79, N-(3-(5-chloro-1H-indole-3-yl)propyl)-6-(3-(piperazine-1-yl)propoxy)pyridine-3-sulfonamide] | > 10 | – | > 10 | – | < 1 | < 1 | 0 to 35 | > 10 | – | < 1 | < 1
CN1CCCN(CCCOc2ccc(S(=O)(=O)NCCCc3c[nH]c4ccc(Cl)cc34)cc2)CC1 [Example 83, N-(3-(5-chloro-1H-indol-3-yl)propyl)-4-(3-(4-methyl-1,4-diazepan-1-yl)propoxy)benzenesulfonamide] | 1 to 10 | < 10 | 1 to 10 | < 10 | < 1 | < 1 | 0 to 35 | 1 to 10 | < 10 | < 1 | < 1
O=S(=O)(NCCCc1c[nH]c2ccc(Cl)cc12)c1ccc(NCCCC2CCNCC2)cc1 [Example 88, N-(3-(5-chloro-1H-indole-3-yl)propyl)-4-((3-(piperidine-4-yl)propyl)amino)benzenesulfonamide] | – | – | > 10 | – | < 1 | < 1 | 50 to 70 | – | – | < 1 | < 1
O=S(=O)(NCCCc1c[nH]c2ccc(Cl)cc12)c1ccc(CCCCN2CCCCC2)cc1 [Example 90, N-(3-(5-chloro-1H-indole-3-yl)propyl)-4-(4-(piperidine-1-yl)butyl)benzenesulfonamide] | – | – | > 10 | – | < 1 | < 1 | 35 to 50 | – | – | < 1 | < 1
CN1CCC(CCCOc2ccc(S(=O)(=O)NCCCc3c[nH]c4ccc(Cl)cc34)cc2)CC1 [Example 92, N-(3-(5-chloro-1H-indole-3-yl)propyl)-4-(3-(1-methylpiperidine-4-yl)propoxy)benzenesulfonamide] | – | – | > 10 | – | < 1 | < 1 | 0 to 35 | – | – | < 1 | < 1
O=S(=O)(NCCCc1c[nH]c2ccc(Cl)cc12)c1ccc(OCCCC2CCNCC2)cc1 [Example 93, N-(3-(5-chloro-1H-indole-3-yl)propyl)-4-(3-(piperidine-4-yl)propoxy)benzenesulfonamide] | – | – | 1 to 10 | < 10 | < 1 | < 1 | 0 to 35 | – | – | < 1 | < 1
CN1CCN(CCCOc2ccc(S(=O)(=O)NCCCc3c[nH]c4ccc(Cl)cc34)cc2F)CC1 [Example 103, N-(3-(5-chloro-1H-indole-3-yl)propyl)-3-fluoro-4-(3-(4-methylpiperazine-1-yl)propoxy)benzenesulfonamide] | – | – | > 10 | – | < 1 | < 1 | 35 to 50 | – | – | < 1 | < 1
O=S(=O)(NCCCc1c[nH]c2ccc(Cl)cc12)c1ccc(OCCCN2CCNCC2)c(F)c1 [Example 104, N-(3-(5-chloro-1H-indol-3-yl)propyl)-3-fluoro-4-(3-(piperazin-1-yl)propoxy)benzenesulfonamide] | – | – | > 10 | – | < 1 | < 1 | 70 to 100 | – | – | < 1 | < 1
O=S(=O)(NCCCc1c[nH]c2ccc(Cl)cc12)c1ccc(OCCCN2CCC(O)CC2)c(F)c1 [Example 105, N-(3-(5-chloro-1H-indol-3-yl)propyl)-3-fluoro-4-(3-(4-hydroxypiperidin-1-yl)propoxy)benzenesulfonamide] | – | – | > 10 | – | < 1 | < 1 | 70 to 100 | – | – | < 1 | < 1
O=S(=O)(NCCCc1c[nH]c2ccc(Cl)cc12)c1ccc(OCCCN2CCCNCC2)c(F)c1 [Example 106, 4-(3-(1,4-diazepan-1-yl)propoxy)-N-(3-(5-chloro-1H-indol-3-yl)propyl)-3-fluorobenzenesulfonamide] | – | – | 1 to 10 | < 10 | < 1 | < 1 | 50 to 70 | – | – | < 1 | < 1
O=S(=O)(NCCCc1c[nH]c2ccc(Cl)cc12)c1ccc(Oc2cccc(N3CCNCC3)c2)cc1 [Example 121, N-(3-(5-chloro-1H-indol-3-yl)propyl)-4-(3-(piperazin-1-yl)phenoxy)benzenesulfonamide] | – | – | 1 to 10 | < 10 | < 1 | < 1 | 0 to 35 | – | – | < 1 | < 1
CN1CCN(c2cccc(Nc3ccc(S(=O)(=O)NCCCc4c[nH]c5ccc(Cl)cc45)cc3)c2)CC1 [Example 123, N-(3-(5-chloro-1H-indole-3-yl)propyl)-4-((3-(4-methylpiperazine-1-yl)phenyl)amino)benzenesulfonamide] | – | – | 1 to 10 | < 10 | 1 to 10 | – | 70 to 100 | – | – | < 1 | < 1
